Test results taken from patent US20240368192A1, “Nitrogen-Containing Heterocyclic Compound, and Preparation Method Therefor, Intermediate Thereof, and Application Thereof” (Shanghai Allist Pharmaceuticals Co., Ltd., priority 2021, published 2024).
Structures can show the parent of a compound that is named as a salt.

Tests used:
[1] = molecular target: Ba/F3 KRAS-G12V cells (Homo sapiens, UniProt P01116, G12V, cells depend on it); assay: Proliferation inhibitory activity on Ba/F3 KRAS-G12V stably transfected cell line (CellTiter-Glo, 72 hours); format: cell-based, mouse; details: read-out: Ba/F3 KRAS-G12V IC50
Sequence of Ba/F3 KRAS-G12V cells (P01116 whole entry G12V): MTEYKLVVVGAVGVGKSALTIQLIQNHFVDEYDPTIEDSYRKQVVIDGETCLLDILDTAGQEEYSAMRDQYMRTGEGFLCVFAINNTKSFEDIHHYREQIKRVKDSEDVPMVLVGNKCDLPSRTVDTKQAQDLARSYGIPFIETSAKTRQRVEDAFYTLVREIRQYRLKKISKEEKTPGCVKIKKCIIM
Description: (§1) Test Example 1: Proliferation Inhibitory Activity on Ba/F3 KRAS-G12D, Ba/F3 KRAS-G12V Stably Transfected Cell Lines and AGS Tumor Cell Lines Containing KRAS G12D Mutations
(§2) To determine the proliferation inhibitory activity of the compounds in vitro on mouse pro-B cells Ba/F3 (Ba/F3 KRAS-G12D and Ba/F3 KRAS-G12V cells stably expressing KRAS G12D/V mutant proteins) and gastric cancer AGS cells expressing KRAS G12D mutant protein.
(§3) Cell sources. Ba/F3 KRAS-G12D and Ba/F3 KRAS-G12V were purchased from Kyinno Biotech (Beijing) Co., Ltd, Cat. No.: KC-1259 and KC-1261, respectively; AGS was purchased from Shanghai Bioleaf Biotech Co., Ltd.
(§4) Cells in the logarithmic growth phase were seeded in a 96-well plate (8000, 8000, 4000 cells/well, 90 μL/well for Ba/F3 KRAS-G12D, Ba/F3 KRAS-G12V, and AGS cells respectively), incubated at 37° C. for 1 day with 5% CO2, and then a gradient dilution of the test compound was added thereto (compounds 1 to 28 and comparative compounds). The details were as follows, the compound stock solution (10 mM) previously dissolved in DMSO was diluted to 10 gradient concentrations at a fold ratio (4 fold) and diluted to 10 fold of the target concentration in another 96-well plate with culture medium, and then 10 μL/well of the compound solution was added to the 96-well plate seeded with cells to reach the target concentration (10000, 2500, 625, 156, 39, 10, 2.5, 0.6, 0.15, 0.04 nM). Each concentration was provided with 3 duplicate wells and a blank control. After continued incubation at 37° C. and 5% CO2 for 72 hours, 50 μL of CellTiter-Glo*2.0 reagent (luciferase ATP bioluminescence detection reagent, purchased from Promega, Cat. No.: G9243) was added to each well, shaken for 2 minutes, and incubated at room temperature for 8 minutes, and then fluorescence luminescence intensity was detected (light collection time was 100 ms). The inhibitory rate of compounds with various concentrations on cell proliferation was calculated. Cell proliferation inhibition rate (%)=[(luminous intensitycontrol group containing cell culture medium for 72 hour−luminous intensitycompound group for 72 hour)/(luminous intensitycontrol group containing cell culture medium for 72 hours−luminous intensitycontrol group without cell culture medium for 72 hour)]×100%. GraphPad Prism 8.3 software was used to analyze the data, and nonlinear S-curve regression was used to fit the data to obtain a dose-effect curve, from which the IC50 value was calculated.

[2] = molecular target: Ba/F3 KRAS-G12D cells (Homo sapiens, UniProt P01116, G12D, cells depend on it); assay: Proliferation inhibitory activity on Ba/F3 KRAS-G12D stably transfected cell line (CellTiter-Glo, 72 hours); format: cell-based, mouse; details: read-out: Ba/F3 KRAS-G12D IC50
Sequence of Ba/F3 KRAS-G12D cells (P01116 whole entry G12D): as the sequence (P01116 whole entry G12V) above, with V12D counted along it
Description: as §1, §2, §3, §4

[3] = tested on: AGS cells; assay: Proliferation inhibitory activity on AGS tumor cell line containing KRAS G12D mutation (CellTiter-Glo, 72 hours); format: cell-based; details: Homo sapiens
Description: as §1, §2, §3, §4

SMILES	GI50 [1]	GI50 [2]	IC50 [3]
Cc1cc(N)nc(-c2ncc3c(N4C[C@@H](N)C[C@H](O)C4)nc(OC[C@@]45CCCN4C[C@H](F)C5)nc3c2F)c1C(F)(F)F [Compound 1, (3S,5S)-5-Amino-1-(7-(6-amino-4-methyl-3-(trifluoromethyl)pyridin-2-yl)-8-fluoro-2-(((2R,7aS)-2-fluorohexahydro-1H-pyrrolizin-7a-yl)methoxy)pyrido[4,3-d]pyrimidin-4-yl)piperidin-3-ol bis(2,2,2-trifluoroacetate)]	5 to 10 µM	–	–
C#Cc1c(F)ccc2cc(O)cc(-c3ncc4c(N5C[C@@H](N)C[C@@H](O)C5)nc(OC[C@@]56CCCN5C[C@H](F)C6)nc4c3F)c12 [Compound 16, (3R,5S)-5-Amino-1-(7-(8-ethynyl-7-fluoro-3-hydroxynaphthalen-1-yl)-8-fluoro-2-(((2R,7aS)-2-fluorohexahydro-1H-pyrrolizin-7a-yl)methoxy)pyrido[4,3-d]pyrimidin-4-yl)piperidin-3-ol bis(2,2,2-trifluoroacetate)]	5 to 10 µM	–	–
C#Cc1c(F)ccc2cc(O)cc(-c3ncc4c(N5CCC[C@H](N)C5)nc(OC[C@@]56CCCN5C[C@H](F)C6)nc4c3F)c12 [Compound 7, 4-(4-((S)-3-Aminopiperidin-1-yl)-8-fluoro-2-(((2R,7aS)-2-fluorohexahydro-1H-pyrrolizin-7a-yl)methoxy)pyrido[4,3-d]pyrimidin-7-yl)-5-ethynyl-6-fluoronaphthalen-2-ol]	5 to 10 µM	5 to 10 µM	–
Cc1cc(N)nc(-c2ncc3c(N4CCC[C@H](N)C4)nc(OC[C@@]45CCCN4C[C@H](F)C5)nc3c2F)c1C(F)(F)F [Compound 2, 6-(4-((S)-3-Aminopiperidin-1-yl)-8-fluoro-2-(((2R,7aS)-2-fluorohexahydro-1H-pyrrolizin-7a-yl)methoxy)pyrido[4,3-d]pyrimidin-7-yl)-4-methyl-5-(trifluoromethyl)pyridin-2-amine tetrakis(2,2,2-trifluoroacetate)]	5 to 10 µM	–	–
Cc1cc(N)nc(-c2nc(N)c3c(N4C[C@H]5CC[C@@H](C4)N5)nc(OC[C@@]45CCCN4C[C@H](F)C5)nc3c2F)c1C(F)(F)F [Compound 19, 7-(6-Amino-4-methyl-3-(trifluoromethyl)pyridin-2-yl)-4-((1R,5S)-3,8-diazabicyclo[3.2.1]octan-3-yl)-8-fluoro-2-(((2R,7aS)-2-fluorohexahydro-1H-pyrrolizin-7a-yl)methoxy)pyrido[4,3-d]pyrimidin-5-amine]	5 to 10 µM	–	–
C#Cc1c(F)ccc2cc(O)cc(-c3ncc4c(N5C[C@H](N)C[C@@H](O)C5)nc(OC[C@@]56CCCN5C[C@H](F)C6)nc4c3F)c12 [Compound 14, (3R,5R)-5-Amino-1-(7-(8-ethynyl-7-fluoro-3-hydroxynaphthalen-1-yl)-8-fluoro-2-(((2R,7aS)-2-fluorohexahydro-1H-pyrrolizin-7a-yl)methoxy)pyrido[4,3-d]pyrimidin-4-yl)piperidin-3-ol bis(2,2,2-trifluoroacetate)]	5 to 10 µM	–	–
C#Cc1c(F)ccc2cc(O)cc(-c3ncc4c(N5C[C@@H]6[C@@H](N)[C@@H]6C5)nc(OC[C@@]56CCCN5C[C@H](F)C6)nc4c3F)c12 [Compound 11, 4-(4-((1R,5S,6R)-6-Amino-3-azabicyclo[3.1.0]hexan-3-yl)-8-fluoro-2-(((2R,7aS)-2-fluorohexahydro-1H-pyrrolizin-7a-yl)methoxy)pyrido[4,3-d]pyrimidin-7-yl)-5-ethynyl-6-fluoronaphthalen-2-ol dihydrochloride]	5 to 10 µM	–	–
[2H]C([2H])(Oc1nc(N2C[C@H]3CC[C@@H](C2)N3)c2c(Cl)nc(-c3cc(O)cc4ccc(F)c(C#C)c34)c(F)c2n1)[C@@]12CCCN1C[C@H](F)C2 [Compound 27, 4-(4-((1R,5S)-3,8-Diazabicyclo[3.2.1]octan-3-yl)-5-chloro-8-fluoro-2-(((2R,7aS)-2-fluorotetrahydro-1H-pyrrolizin-7a(5H)-yl)methoxy-d2)pyrido[4,3-d]pyrimidin-7-yl)-5-ethynyl-6-fluoronaphthalen-2-ol]	–	0.001 µM	0.006 µM
C#Cc1c(F)ccc2cc(O)cc(-c3ncc4c(N5C[C@@H](N)C[C@H](O)C5)nc(OC[C@@]56CCCN5C[C@H](F)C6)nc4c3F)c12 [Compound 8, (3S,5S)-5-Amino-1-(7-(8-ethynyl-7-fluoro-3-hydroxynaphthalen-1-yl)-8-fluoro-2-(((2R,7aS)-2-fluorohexahydro-1H-pyrrolizin-7a-yl)methoxy)pyrido[4,3-d]pyrimidin-4-yl)piperidin-3-ol]	5 to 10 µM	–	–
C#Cc1c(F)ccc2cc(O)cc(-c3ncc4c(N5CC[C@H](N)C5)nc(OC[C@@]56CCCN5C[C@H](F)C6)nc4c3F)c12 [Compound 15, 4-(4-((S)-3-Aminopyrrolidin-1-yl)-8-fluoro-2-(((2R,7aS)-2-fluorohexahydro-1H-pyrrolizin-7a-yl)methoxy)pyrido[4,3-d]pyrimidin-7-yl)-5-ethynyl-6-fluoronaphthalen-2-ol]	5 to 10 µM	5 to 10 µM	–
N[C@H]1CCCN(c2nc(OC[C@@]34CCCN3C[C@H](F)C4)nc3c(F)c(-c4cc(O)cc5ccccc45)ncc23)C1 [Compound 3, 4-(4-((S)-3-Aminopiperidin-1-yl)-8-fluoro-2-(((2R,7aS)-2-fluorohexahydro-1H-pyrrolizin-7a-yl)methoxy)pyrido[4,3-d]pyrimidin-7-yl)naphthalen-2-ol]	5 to 10 µM	–	–
C#Cc1c(F)ccc2cc(O)cc(-c3ncc4c(N5C[C@H](N)C[C@H](O)C5)nc(OC[C@@]56CCCN5C[C@H](F)C6)nc4c3F)c12 [Compound 13, (3S,5R)-5-Amino-1-(7-(8-ethynyl-7-fluoro-3-hydroxynaphthalen-1-yl)-8-fluoro-2-(((2R,7aS)-2-fluorohexahydro-1H-pyrrolizin-7a-yl)methoxy)pyrido[4,3-d]pyrimidin-4-yl)piperidin-3-ol]	5 to 10 µM	–	–
N[C@@H]1CCCN(c2nc(OC[C@@]34CCCN3C[C@H](F)C4)nc3c(F)c(-c4cc(O)cc5ccccc45)ncc23)C1 [Compound 5, 4-(4-((R)-3-Aminopiperidin-1-yl)-8-fluoro-2-(((2R,7aS)-2-fluorohexahydro-1H-pyrrolizin-7a-yl)methoxy)pyrido[4,3-d]pyrimidin-7-yl)naphthalen-2-ol]	5 to 10 µM	–	–
N[C@H]1C[C@H](O)CN(c2nc(OC[C@@]34CCCN3C[C@H](F)C4)nc3c(F)c(-c4cc(O)cc5ccccc45)ncc23)C1 [Compound 4, (3S,5S)-5-Amino-1-(8-fluoro-2-(((2R,7aS)-2-fluorohexahydro-1H-pyrrolizin-7a-yl)methoxy)-7-(3-hydroxynaphthalen-1-yl)pyrido[4,3-d]pyrimidin-4-yl)piperidin-3-ol]	5 to 10 µM	–	–
C#Cc1c(F)ccc2cc(O)cc(-c3ncc4c(N5C[C@@H]6C[C@]6(N)C5)nc(OC[C@@]56CCCN5C[C@H](F)C6)nc4c3F)c12 [Compound 9, 4-(4-((1R,5S)-1-Amino-3-azabicyclo[3.1.0]hexan-3-yl)-8-fluoro-2-(((2R,7aS)-2-fluorohexahydro-1H-pyrrolizin-7a-yl)methoxy)pyrido[4,3-d]pyrimidin-7-yl)-5-ethynyl-6-fluoronaphthalen-2-ol]	5 to 10 µM	5 to 10 µM	–
C#Cc1c(F)ccc2cc(O)cc(-c3ncc4c(C5=C[C@@H]6CC[C@H](C5)N6)nc(OC[C@@]56CCCN5C[C@H](F)C6)nc4c3F)c12 [Compound 23, 4-(4-((1R,5S)-8-Azabicyclo[3.2.1]oct-3-en-3-yl)-8-fluoro-2-(((2R,7aS)-2-fluorohexahydro-1H-pyrrolizin-7a-yl)methoxy)pyrido[4,3-d]pyrimidin-7-yl)-5-ethynyl-6-fluoronaphthalen-2-ol]	5 to 10 µM	–	2.5 µM
C#Cc1c(F)ccc2cc(O)cc(-c3ncc4c(N5C[C@@H]6[C@H](N)[C@@H]6C5)nc(OC[C@@]56CCCN5C[C@H](F)C6)nc4c3F)c12 [Compound 12, 4-(4-((1R,5S,6S)-6-Amino-3-azabicyclo[3.1.0]hexan-3-yl)-8-fluoro-2-(((2R,7aS)-2-fluorohexahydro-1H-pyrrolizin-7a-yl)methoxy)pyrido[4,3-d]pyrimidin-7-yl)-5-ethynyl-6-fluoronaphthalen-2-ol bis(2,2,2-trifluoroacetate)]	5 to 10 µM	–	–
